Source: patent US8003649B2 (AstraZeneca AB, priority 2007, dated 2011)

Each molecule was assayed against T1, Androgen Receptor (AR) (Homo sapiens, UniProt P10275, T878A) (assay: LNCaP Androgen Receptor Down-regulation Cell Assay (immunofluorescence end point)). Conditions: LNCaP prostate carcinoma cells, compound incubation 20-22 hours, 50% reduction of the AR signal; read-out: Androgen Receptor Down-regulation Assay (a) IC50/μM.
T1 construct: cell based immuno-fluorescence assay using the LNCaP prostate epithelial cell line; endogenous in cells; host or cells: LNCaP clone FGC (ATCC CRL-1740)
T1 sequence (P10275 1-920 T878A): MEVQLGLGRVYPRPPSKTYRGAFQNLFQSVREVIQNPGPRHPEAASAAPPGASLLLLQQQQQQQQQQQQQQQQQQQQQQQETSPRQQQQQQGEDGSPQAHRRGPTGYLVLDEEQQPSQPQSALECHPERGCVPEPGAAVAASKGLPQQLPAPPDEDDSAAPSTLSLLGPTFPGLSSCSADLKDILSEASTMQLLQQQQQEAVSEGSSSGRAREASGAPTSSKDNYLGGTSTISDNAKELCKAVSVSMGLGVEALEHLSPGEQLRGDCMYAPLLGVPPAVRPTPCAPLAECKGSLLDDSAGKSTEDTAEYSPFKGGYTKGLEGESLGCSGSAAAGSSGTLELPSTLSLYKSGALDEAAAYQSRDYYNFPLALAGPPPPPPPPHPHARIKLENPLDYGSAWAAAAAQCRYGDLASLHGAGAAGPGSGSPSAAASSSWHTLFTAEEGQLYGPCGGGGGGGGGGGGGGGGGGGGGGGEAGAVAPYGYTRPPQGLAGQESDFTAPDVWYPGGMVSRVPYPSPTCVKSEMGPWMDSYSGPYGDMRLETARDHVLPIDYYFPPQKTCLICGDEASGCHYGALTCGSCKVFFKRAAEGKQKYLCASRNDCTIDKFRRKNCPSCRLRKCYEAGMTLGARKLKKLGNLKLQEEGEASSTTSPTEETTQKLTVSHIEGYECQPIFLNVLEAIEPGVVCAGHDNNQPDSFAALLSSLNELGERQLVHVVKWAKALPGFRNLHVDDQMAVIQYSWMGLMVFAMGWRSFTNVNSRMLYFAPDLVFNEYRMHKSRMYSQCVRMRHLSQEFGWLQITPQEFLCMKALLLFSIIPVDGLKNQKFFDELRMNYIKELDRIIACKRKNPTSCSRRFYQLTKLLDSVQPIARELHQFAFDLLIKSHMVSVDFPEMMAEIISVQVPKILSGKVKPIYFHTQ
Type: cell-based
Outline: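 AR loss reported as IC50 from curve fits of fluorescence dose-response data, with AR immunostained and read by laser-scanning cytometry. Compound exposure was 20-22 h at 37° C in LNCaP cells grown in 5% charcoal-stripped FBS and plated overnight beforehand.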

Row | SMILES | DC50
1 | Cn1c(CN2CCN(c3ccc4nnc(C(F)(F)F)n4n3)CC2)cc2ccccc21 [Example 69, 6-[4-[(1-methylindol-2-yl)methyl]piperazin-1-yl]-3-(trifluoromethyl)-[1,2,4]triazolo[4,3-b]pyridazine] | 1.4 µM
2 | FC(F)(F)c1nnc2ccc(N3CCN(Cc4cccs4)CC3)nn12 [Example 70, 6-[4-(thiophen-2-ylmethyl)piperazin-1-yl]-3-(trifluoromethyl)-[1,2,4]triazolo[4,3-b]pyridazine] | 0.64 µM
3 | Cn1cc(CN2CCN(c3ccc4nnc(C(F)(F)F)n4n3)CC2)c2ccccc21 [Example 71, 6-[4-[(1-methylindol-3-yl)methyl]piperazin-1-yl]-3-(trifluoromethyl)-[1,2,4]triazolo[4,3-b]pyridazine] | 1.4 µM
4 | Fc1ccccc1CN1CCN(c2ccc3nnc(C(F)(F)F)n3n2)CC1 [Example 72, 6-[4-[(2-fluorophenyl)methyl]piperazin-1-yl]-3-(trifluoromethyl)-[1,2,4]triazolo[4,3-b]pyridazine] | 1 µM
5 | CS(=O)(=O)c1cccc(CN2CCN(c3ccc4nnc(C(F)(F)F)n4n3)CC2)c1 [Example 74, 6-[4-[(3-methylsulfonylphenyl)methyl]piperazin-1-yl]-3-(trifluoromethyl)-[1,2,4]triazolo[4,3-b]pyridazine] | 5.6 µM
6 | COc1ccccc1CN1CCN(c2ccc3nnc(C(F)(F)F)n3n2)CC1 [Example 75, 6-[4-[(2-methoxyphenyl)methyl]piperazin-1-yl]-3-(trifluoromethyl)-[1,2,4]triazolo[4,3-b]pyridazine] | 2.3 µM
7 | FC(F)(F)c1nnc2ccc(N3CCN(Cc4cccc5c4OCCO5)CC3)nn12 [Example 76, 6-[4-(2,3-dihydro-1,4-benzodioxin-5-ylmethyl)piperazin-1-yl]-3-(trifluoromethyl)-[1,2,4]triazolo[4,3-b]pyridazine] | 2.3 µM
8 | FC(F)(F)c1nnc2ccc(N3CCN(Cc4ccc5[nH]ccc5c4)CC3)nn12 [Example 77, 6-[4-(1H-indol-5-ylmethyl)piperazin-1-yl]-3-(trifluoromethyl)-[1,2,4]triazolo[4,3-b]pyridazine] | 1.4 µM
9 | FC(F)(F)c1nnc2ccc(N3CCN(Cc4ccco4)CC3)nn12 [Example 79, 6-[4-(furan-2-ylmethyl)piperazin-1-yl]-3-(trifluoromethyl)-[1,2,4]triazolo[4,3-b]pyridazine] | 2.4 µM
10 | FC(F)(F)c1nnc2ccc(N3CCN(Cc4cccnc4)CC3)nn12 [Example 81, 6-[4-(pyridin-3-ylmethyl)piperazin-1-yl]-3-(trifluoromethyl)-[1,2,4]triazolo[4,3-b]pyridazine] | 7.2 µM
11 | COc1cccc(CN2CCN(c3ccc4nnc(C(F)(F)F)n4n3)CC2)c1 [Example 82, 6-[4-[(3-methoxyphenyl)methyl]piperazin-1-yl]-3-(trifluoromethyl)-[1,2,4]triazolo[4,3-b]pyridazine] | 1.6 µM
12 | FC(F)(F)c1nnc2ccc(N3CCN(Cc4ccc[nH]4)CC3)nn12 [Example 83, 6-[4-(1H-pyrrol-2-ylmethyl)piperazin-1-yl]-3-(trifluoromethyl)-[1,2,4]triazolo[4,3-b]pyridazine] | 2.5 µM
13 | FC(F)(F)c1nnc2ccc(N3CCN(Cc4ccc5c(c4)CCO5)CC3)nn12 [Example 84, 6-[4-(2,3-dihydro-1-benzofuran-5-ylmethyl)piperazin-1-yl]-3-(trifluoromethyl)-[1,2,4]triazolo[4,3-b]pyridazine] | 1.8 µM
14 | FC(F)(F)c1nnc2ccc(N3CCN(Cc4ccc5c(c4)OCO5)CC3)nn12 [Example 85, 6-[4-(1,3-benzodioxol-5-ylmethyl)piperazin-1-yl]-3-(trifluoromethyl)-[1,2,4]triazolo[4,3-b]pyridazine] | 1.6 µM
15 | Cn1cccc1CN1CCN(c2ccc3nnc(C(F)(F)F)n3n2)CC1 [Example 87, 6-[4-[(1-methylpyrrol-2-yl)methyl]piperazin-1-yl]-3-(trifluoromethyl)-[1,2,4]triazolo[4,3-b]pyridazine] | 5.2 µM
16 | FC(F)(F)c1nnc2ccc(N3CCN(Cc4ccc5c(c4)OCCO5)CC3)nn12 [Example 88, 6-[4-(2,3-dihydro-1,4-benzodioxin-6-ylmethyl)piperazin-1-yl]-3-(trifluoromethyl)-[1,2,4]triazolo[4,3-b]pyridazine] | 1.5 µM
17 | Cn1cncc1CN1CCN(c2ccc3nnc(C(F)(F)F)n3n2)CC1 [Example 89, 6-[4-[(3-methylimidazol-4-yl)methyl]piperazin-1-yl]-3-(trifluoromethyl)-[1,2,4]triazolo[4,3-b]pyridazine] | 23 µM
18 | FC(F)(F)c1nnc2ccc(N3CCN(Cc4ccoc4)CC3)nn12 [Example 90, 6-[4-(furan-3-ylmethyl)piperazin-1-yl]-3-(trifluoromethyl)-[1,2,4]triazolo[4,3-b]pyridazine] | 3.2 µM
19 | FC(F)(F)c1nnc2ccc(N3CCN(Cc4c[nH]c5ccccc45)CC3)nn12 [Example 94, 6-[4-(1H-indol-3-ylmethyl)piperazin-1-yl]-3-(trifluoromethyl)-[1,2,4]triazolo[4,3-b]pyridazine] | 0.93 µM
20 | FC(F)(F)c1cccc(CN2CCN(c3ccc4nnc(C(F)(F)F)n4n3)CC2)c1 [Example 95, 3-(trifluoromethyl)-6-[4-[[3-(trifluoromethyl)phenyl]methyl]piperazin-1-yl]-[1,2,4]triazolo[4,3-b]pyridazine] | 0.67 µM
21 | Fc1cccc(CN2CCN(c3ccc4nnc(C(F)(F)F)n4n3)CC2)c1 [Example 96, 6-[4-[(3-fluorophenyl)methyl]piperazin-1-yl]-3-(trifluoromethyl)-[1,2,4]triazolo[4,3-b]pyridazine] | > 1.3 µM

More lines, now with the values ahead:

Row | DC50 | SMILES
22 | 0.36 µM | FC(F)(F)c1nnc2ccc(N3CCN(Cc4cccc(Cl)c4)CC3)nn12 [Example 97, 6-[4-[(3-chlorophenyl)methyl]piperazin-1-yl]-3-(trifluoromethyl)-[1,2,4]triazolo[4,3-b]pyridazine]
23 | 2.3 µM | Cc1cc(CN2CCN(c3ccc4nnc(C(F)(F)F)n4n3)CC2)oc1C [Example 98, 6-[4-[(4,5-dimethylfuran-2-yl)methyl]piperazin-1-yl]-3-(trifluoromethyl)-[1,2,4]triazolo[4,3-b]pyridazine]
24 | 2.9 µM | FC(F)(F)c1nnc2ccc(N3CCN(CC4CCCCC4)CC3)nn12 [Example 99, 6-[4-(cyclohexylmethyl)piperazin-1-yl]-3-(trifluoromethyl)-[1,2,4]triazolo[4,3-b]pyridazine]
25 | 1.8 µM | FC1(F)Oc2ccc(CN3CCN(c4ccc5nnc(C(F)(F)F)n5n4)CC3)cc2O1 [Example 100, 6-[4-[(2,2-difluoro-1,3-benzodioxol-5-yl)methyl]piperazin-1-yl]-3-(trifluoromethyl)-[1,2,4]triazolo[4,3-b]pyridazine]
26 | 1.7 µM | FC(F)(F)c1nnc2ccc(N3CCN(Cc4cc5ccccc5[nH]4)CC3)nn12 [Example 101, 6-[4-(1H-indol-2-ylmethyl)piperazin-1-yl]-3-(trifluoromethyl)-[1,2,4]triazolo[4,3-b]pyridazine]
27 | 2.9 µM | FC(F)(F)c1nnc2ccc(N3CCN(Cc4cccc5c4OCO5)CC3)nn12 [Example 102, 6-[4-(1,3-benzodioxol-4-ylmethyl)piperazin-1-yl]-3-(trifluoromethyl)-[1,2,4]triazolo[4,3-b]pyridazine]
28 | 6.2 µM | FC(F)(F)c1nnc2ccc(N3CCN(Cc4cccc5nccnc45)CC3)nn12 [Example 103, 5-[[4-[3-(trifluoromethyl)[1,2,4]triazolo[4,3-b]pyridazin-6-yl]piperazin-1-yl]methyl]quinoxaline]
29 | 9.5 µM | FC(F)(F)c1nnc2ccc(N3CCN(Cc4cc[nH]c4)CC3)nn12 [Example 104, 6-[4-(1H-pyrrol-3-ylmethyl)piperazin-1-yl]-3-(trifluoromethyl)-[1,2,4]triazolo[4,3-b]pyridazine]
30 | 3.2 µM | Cc1ccc(Oc2cccc(CN3CCN(c4ccc5nnc(C(F)(F)F)n5n4)CC3)c2)cc1 [Example 105, 6-[4-[[3-(4-methylphenoxy)phenyl]methyl]piperazin-1-yl]-3-(trifluoromethyl)-[1,2,4]triazolo[4,3-b]pyridazine]
31 | 4.4 µM | CN(C)c1ccc(CN2CCN(c3ccc4nnc(C(F)(F)F)n4n3)CC2)cc1 [Example 106, N,N-dimethyl-4-[[4-[3-(trifluoromethyl)-[1,2,4]triazolo[4,3-b]pyridazin-6-yl]piperazin-1-yl]methyl]aniline]
